From the NIST ThermoML archive (doi:10.1021/je060457+)

Key:
[1] = 101 kPa, Liquid; for viscosity: Capillary tube (Ostwald / Ubbelohde) method; for mass density: Vibrating tube method
[2] = refractive index (Na D-line) (dimensionless); conditions: 101.33 kPa, Liquid, Standard Abbe refractometry
[3] = xn = mol fraction of the nth substance listed; conditions: 101 kPa, Liquid, x2 = 0; for viscosity: Capillary tube (Ostwald / Ubbelohde) method; for mass density: Vibrating tube method
[4] = refractive index (Na D-line) (dimensionless); xn = mol fraction of the nth substance listed; conditions: 101 kPa, Liquid, Standard Abbe refractometry, x2 = 0

CNCCO [2-(methylamino)ethanol]
Conditions	mass density, [1] [kg/m3]	refractive index, [2]	viscosity, [1] [mPa·s]
293.15 K	–	1.4393	–
298.15 K	936.18	1.4375	10.51
303.15 K	932.26	1.4356	8.522
308.15 K	–	1.4339	–
313.15 K	924.42	1.4318	5.833
318.15 K	–	1.4298	–
323.15 K	916.48	1.4278	4.177
333.15 K	908.46	–	3.108
343.15 K	900.3	–	2.385

O [water] + CNCCO
Conditions	mass density, [3] [kg/m3]	refractive index, [4]	viscosity, [3] [mPa·s]
293.15 K	–	1.3331	–
298.15 K	–	1.3326	0.8824
303.15 K	–	1.332	0.8047
308.15 K	–	1.3314	–
313.15 K	992.26	1.3307	0.6596
318.15 K	–	1.3299	–
323.15 K	988.05	1.3291	0.5507
333.15 K	983.19	–	0.4703
343.15 K	977.78	–	0.4074
